Where a name gives a salt, the structure may show the parent alone.

For the first assay, the target named is T1, JH2 domain of human Tyk2 (Homo sapiens, UniProt P29597).
T1 construct: 10×His-tagged TYK2 JH2 domain (amino acid 575-876)
T1 sequence (P29597 575-876): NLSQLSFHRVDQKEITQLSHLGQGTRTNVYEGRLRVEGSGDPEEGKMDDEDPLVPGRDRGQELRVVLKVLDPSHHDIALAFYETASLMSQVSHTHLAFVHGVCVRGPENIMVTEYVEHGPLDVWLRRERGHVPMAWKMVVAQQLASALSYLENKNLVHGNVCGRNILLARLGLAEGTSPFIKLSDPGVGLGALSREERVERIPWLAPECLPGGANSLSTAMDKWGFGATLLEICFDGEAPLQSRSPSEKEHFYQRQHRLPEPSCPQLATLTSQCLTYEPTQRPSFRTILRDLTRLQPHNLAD
The assay can be described thus: JH2 biochemical assay (TR-FRET probe displacement). Type of assay: binding. The following applies: JH2 biochemical assay. As to the method:
The inhibitory potency of compounds of the disclosure against the kinase activity of recombinantly generated JH2 domain of human Tyk2 was evaluated in a plate-based assay using a TR-FRET assay platform. Briefly, 2 nM of recombinant JH2 domain [10×His-tagged TYK2 JH2 domain (amino acid 575-876)] was combined with 2 nM probe ((S)-6-amino-9-(2-carboxy-4-((1-(3-(8-methyl-5-(methylamino)-8H-imidazo[4,5-d]thiazolo[5,4-b]pyridin-2-yl)phenyl)ethyl)carbamoyl)phenyl)-3-iminio-5-sulfo-3H-xanthene-4-sulfonate), 0.1 nM Tb-labeled anti-His antibody, and compounds of disclosure for 60 minutes. Compounds are tested at either […] top concentration, 10 points of 3-fold dilution. The TR-FRET signal […] by compounds and signal was calculated by taking the ratio of fluorescence at 520 nm and 495 nm. The data was normalized and the percent activity versus log concentration of compound was fitted with a 4-parameter logistic model to generate IC50 curves.
On the technique in general: Time-resolved FRET reads energy transfer from a long-lived donor to a nearby acceptor.
A word on the IC50: it is the concentration that gives 50% inhibition. `CC(=O)Nc1cc2c(cn1)C1(CC1)CN2c1cc(C)nc(C2CCCCN2C)n1` (stereo not drawn) [Example 118, N-(1′-(6-methyl-2-(1-methylpiperidin-2-yl)pyrimidin-4-yl)-1′,2′-dihydrospiro[cyclopropane-1,3′-pyrrolo[3,2-c]pyridin]-6′-yl)acetamide] displayed a half-inhibitory concentration (IC50) of at least 1 µM.

Turning to `CC(=O)Nc1cc2c(cn1)C1(CCCC1)CN2c1cccc(C(C)(F)F)n1` [Example 45, N-(1′-(6-(1,1-difluoroethyl)pyridin-2-yl)-1′,2′-dihydrospiro[cyclopentane-1,3′-pyrrolo[3,2-c]pyridin]-6′-yl)acetamide], the IC50 lay in the range of 0.1 to 1 µM. The same measure, in the same setting: with `CC(=O)Nc1cc2c(cn1)C1(CC1)CN2c1cc(C)cc(-c2cnn(C3COC3)c2)n1` [Example 265, N-(1′-(4-methyl-6-(1-(oxetan-3-yl)-1H-pyrazol-4-yl)pyridin-2-yl)-1′,2′-dihydrospiro[cyclopropane-1,3′-pyrrolo[3,2-c]pyridin]-6′-yl)acetamide trifluoroacetate] the figure was 0.01 to 0.1 µM; with `CC(=O)Nc1cc2c(cn1)C1(CC1)CN2c1cc(C)cc(-c2cnn(C3CNC3)c2)n1` [Example 268, N-(1′-(6-(1-(azetidin-3-yl)-1H-pyrazol-4-yl)-4-methylpyridin-2-yl)-1′,2′-dihydrospiro[cyclopropane-1,3′-pyrrolo[3,2-c]pyridin]-6′-yl)acetamide trifluoroacetate], 0.1 to 1 µM; with `CC(=O)Nc1cc2c(cn1)C1(CC1)CN2c1cc(C)nc(OCC(F)(F)F)n1` [Example 361, N-(1′-(6-methyl-2-(2,2,2-trifluoroethoxy)pyrimidin-4-yl)-1′,2′-dihydrospiro[cyclopropane-1,3′-pyrrolo[3,2-c]pyridin]-6′-yl)acetamide trifluoroacetate], 0.01 to 0.1 µM. The compound `COC(C)c1nccc(N2CC3(CC3)c3cnc(NC(C)=O)cc32)n1` (stereo not drawn) [Example 131, N-(1′-(2-(1-methoxyethyl)pyrimidin-4-yl)-1′,2′-dihydrospiro[cyclopropane-1,3′-pyrrolo[3,2-c]pyridin]-6′-yl)acetamide] registered a half-maximal inhibitory concentration (IC50) of 0.01 to 0.1 µM. For the compound `CC(=O)Nc1cc2c(cn1)C1(CC1)CN2c1cc(C)cc(-c2cnn(C)c2C(F)F)n1` [Example 262, N-(1′-(6-(5-(difluoromethyl)-1-methyl-1H-pyrazol-4-yl)-4-methylpyridin-2-yl)-1′,2′-dihydrospiro[cyclopropane-1,3′-pyrrolo[3,2-c]pyridin]-6′-yl)acetamide trifluoroacetate], the concentration for half-maximal inhibition (IC50) was 0.01 to 0.1 µM.

Take `CC(=O)Nc1cc2c(cn1)C1(CC1)CN2c1ccnc(C2COC2)n1` [Example 3, N-(1′-(2-(oxetan-3-yl)pyrimidin-4-yl)-1′,2′-dihydrospiro[cyclopropane-1,3′-pyrrolo[3,2-c]pyridin]-6′-yl)acetamide]: the IC50 lay within 0.01 to 0.1 µM.

`CC(=O)Nc1cc2c(cn1)C1(CC1)CN2c1cc(C)nc(-c2cnn(C3CNC3)c2)n1` [Example 269, N-(1′-(2-(1-(azetidin-3-yl)-1H-pyrazol-4-yl)-6-methylpyrimidin-4-yl)-1′,2′-dihydrospiro[cyclopropane-1,3′-pyrrolo[3,2-c]pyridin]-6′-yl)acetamide trifluoroacetate]: the IC50 lay in the range of 0.1 to 1 µM.

Compound `CC(=O)Nc1cc2c(cn1)C1(CCOCC1)CN2c1nccc(C(C)(F)F)n1` [Example 46, N-(1′-(4-(1,1-difluoroethyl)pyrimidin-2-yl)-1′,2,2′,3,5,6-hexahydrospiro[pyran-4,3′-pyrrolo[3,2-c]pyridin]-6′-yl)acetamide] gave a half-inhibitory concentration (IC50) of at least 1 µM.

In turn, `CC(=O)Nc1cc2c(cn1)C1(CCOCC1)CN2c1cccc(C(C)(F)F)n1` [Example 48, N-(1′-(6-(1,1-difluoroethyl)pyridin-2-yl)-1′,2,2′,3,5,6-hexahydrospiro[pyran-4,3′-pyrrolo[3,2-c]pyridin]-6′-yl)acetamide] showed an IC50 of 0.1 to 1 µM. On the same count and under the same terms, with `CC(=O)Nc1cc2c(cn1)C1(CCC1)CN2c1nccc(C(C)(F)F)n1` [Example 40, N-(1′-(4-(1,1-difluoroethyl)pyrimidin-2-yl)-1′,2′-dihydrospiro[cyclobutane-1,3′-pyrrolo[3,2-c]pyridin]-6′-yl)acetamide] the figure was 0.01 to 0.1 µM. Turning to `CC(=O)Nc1cc2c(cn1)C1(CCCC1)CN2c1nccc(C(C)(F)F)n1` [Example 43, N-(1′-(4-(1,1-difluoroethyl)pyrimidin-2-yl)-1′,2′-dihydrospiro[cyclopentane-1,3′-pyrrolo[3,2-c]pyridin]-6′-yl)acetamide], the IC50 is 0.1 to 1 µM.

Staying with this assay, now noted: TR-FRET probe displacement, JH2 domain of human Tyk2.
Compound `CC(=O)Nc1cc2c(cn1)C1(CC1)CN2c1cc(C)nc(OCC2CCO2)n1` (stereo not drawn) [Example 380, N-(1′-(6-methyl-2-(oxetan-2-ylmethoxy)pyrimidin-4-yl)-1′,2′-dihydrospiro[cyclopropane-1,3′-pyrrolo[3,2-c]pyridin]-6′-yl)acetamide trifluoroacetate] yielded an IC50 of 0.01 to 0.1 µM.

The next assay has as its system Tyk2 kinase activity on STAT4. Briefly: pSTAT4 cell assay (MSD, NK92 cells). The following applies: compounds 1 hr, stimulated 15 minutes. Type of assay: cell-based. As to the method:
The inhibitory potency of compounds of the disclosure against the Tyk2 kinase activity on STAT4 was evaluated using an MSD-platform plate-based assay format. NK92 cells natively expressing STAT4 and Tyk2 were serum-starved to reduce background phosphorylation levels, then cells were treated compounds for 1 hr with a 10-point four-fold dilution series starting at 10 μM. Cells were then stimulated with 30 ng/mL IL2 for 15 minutes. Cells were lysed and […] levels were quantitated using an MSD plate-based assay with anti-STAT4 antibodies. The data were normalized and the percent activity versus log concentration of compound were fitted with a 4-parameter logistic model to generate to generate IC50 curves.
On to `CC(=O)Nc1cc2c(cn1)C1(CC1)CN2c1cc(C)nc(-c2ccncc2)n1` [Example 107, N-(1′-(6-methyl-2-(pyridin-4-yl)pyrimidin-4-yl)-1′,2′-dihydrospiro[cyclopropane-1,3′-pyrrolo[3,2-c]pyridin]-6′-yl)acetamide], for which the concentration for half-maximal inhibition (IC50) was at least 1 µM.

For the compound `CC(=O)Nc1cc2c(cn1)C1(CC1)CN2c1cc(C)nc(-c2cccc(F)c2)n1` [Example 111, N-(1′-(2-(3-fluorophenyl)-6-methylpyrimidin-4-yl)-1′,2′-dihydrospiro[cyclopropane-1,3′-pyrrolo[3,2-c]pyridin]-6′-yl)acetamide], the concentration for half-maximal inhibition (IC50) was at least 1 µM. `CC(=O)Nc1cc2c(cn1)C1(CC1)CN2c1cc(C)nc(-c2ncccn2)n1` [Example 108, N-(1′-(6-methyl-[2,2′-bipyrimidin]-4-yl)-1′,2′-dihydrospiro[cyclopropane-1,3′-pyrrolo[3,2-c]pyridin]-6′-yl)acetamide] had a half-inhibitory concentration (IC50) of at least 1 µM. Still for that read-out and setting: the value for `COC1(c2cc(C)cc(N3CC4(CC4)c4cnc(NC(C)=O)cc43)n2)CCOC1` (stereo not drawn) [Example 96, N-(1′-(6-(3-methoxytetrahydrofuran-3-yl)-4-methylpyridin-2-yl)-1′,2′-dihydrospiro[cyclopropane-1,3′-pyrrolo[3,2-c]pyridin]-6′-yl)acetamide] was 0.01 to 0.1 µM; that for `CC(=O)Nc1cc2c(cn1)C1(CC1)CN2c1cc(C)nc(OCC2COC2)n1` [Example 366, N-(1′-(6-methyl-2-(oxetan-3-ylmethoxy)pyrimidin-4-yl)-1′,2′-dihydrospiro[cyclopropane-1,3′-pyrrolo[3,2-c]pyridin]-6′-yl)acetamide trifluoroacetate] was 0.1 to 1 µM. The same measure, in the same setting: the value for `CC(=O)Nc1cc2c(cn1)C1(CC1)CN2c1cc(C)nc(-c2cnc(C)s2)n1` [Example 255, N-(1′-(6-methyl-2-(2-methylthiazol-5-yl)pyrimidin-4-yl)-1′,2′-dihydrospiro[cyclopropane-1,3′-pyrrolo[3,2-c]pyridin]-6′-yl)acetamide trifluoroacetate] was at least 1 µM; that for `CC(=O)Nc1cc2c(cn1)C1(CC1)CN2c1cc(C)nc(-c2cccnc2)n1` [Example 106, N-(1′-(6-methyl-2-(pyridin-3-yl)pyrimidin-4-yl)-1′,2′-dihydrospiro[cyclopropane-1,3′-pyrrolo[3,2-c]pyridin]-6′-yl)acetamide] was at least 1 µM.
